Experimental data as given in ChEMBL document CHEMBL4373717, “Coumarin-containing hybrids and their anticancer activities” (Eur J Med Chem, 2019).
In brackets after ≈: the same amount, converted by molar mass. One block for each molecule: values may come before it.

Key:
[1] = tested on: A549; experiment: Anticancer activity against human A549 cells by MTT assay; type: functional, cell-based
[2] = tested on: MDA-MB-231; experiment: Anticancer activity against human MDA-MB-231 cells by MTT assay; type: functional, cell-based
[3] = tested on: HeLa; experiment: Anticancer activity against human HeLa cells by MTT assay; type: functional, cell-based
[4] = tested on: K562; experiment: Anticancer activity against human K562 cells by MTT assay; type: functional, cell-based
[5] = tested on: A549; experiment: Potency index, ratio of doxorubicin IC50 to compound IC50 for anticancer activity against human A549 cells; type: functional
[6] = tested on: MDA-MB-231; experiment: Potency index, ratio of doxorubicin IC50 to compound IC50 for anticancer activity against human MDA-MB-231 cells; type: functional
[7] = tested on: HeLa; experiment: Potency index, ratio of doxorubicin IC50 to compound IC50 for anticancer activity against human HeLa cells; type: functional
[8] = tested on: K562; experiment: Potency index, ratio of doxorubicin IC50 to compound IC50 for anticancer activity against human K562 cells; type: functional
[9] = tested on: MCF7; experiment: Growth inhibition of human MCF7 cells relative to control; type: functional
[10] = tested on: MDA-MB-231; experiment: Growth inhibition of human MDA-MB-231 cells relative to control; type: functional
[11] = tested on: Ishikawa; experiment: Growth inhibition of human Ishikawa cells relative to control; type: functional
[12] = tested on: A549; experiment: Potency index, ratio of cisplatin IC50 to compound IC50 for antiproliferative activity against human A549 cells; type: functional
[13] = tested on: K562; experiment: Potency index, ratio of cisplatin IC50 to compound IC50 for antiproliferative activity against human K562 cells; type: functional
[14] = tested on: K562; experiment: Antiproliferative activity against human K562 cells after 48 hrs by MTT assay; type: functional, cell-based; conditions: K562, 48 h
[15] = tested on: MCF7; experiment: Antiproliferative activity against human MCF7 cells after 48 hrs by MTT assay; type: functional, cell-based; conditions: MCF7, 48 h
[16] = tested on: A549; experiment: Antiproliferative activity against human A549 cells after 48 hrs by MTT assay; type: functional, cell-based; conditions: A549, 48 h
[17] = tested on: MCF7; experiment: Potency index, ratio of cisplatin IC50 to compound IC50 for antiproliferative activity against human MCF7 cells; type: functional
[18] = tested on: MDA-MB-231; experiment: Cytotoxicity against human MDA-MB-231 cells assessed as reduction in cell viability after 24 hrs by MTT assay; type: functional, cell-based; conditions: mda-mb-231
[19] = tested on: MDA-MB-231; experiment: Potency index, ratio of doxorubicin IC50 to compound IC50 for cytotoxicity against human MDA-MB-231 cells in hypoxic condition; type: functional
[20] = tested on: MDA-MB-231; experiment: Potency index, ratio of doxorubicin IC50 to compound IC50 for cytotoxicity against human MDA-MB-231 cells in normoxic condition; type: functional
[21] = tested on: MDA-MB-231; experiment: Potency index, ratio of cisplatin IC50 to compound IC50 for cytotoxicity against human MDA-MB-231 cells in hypoxic condition; type: functional
[22] = tested on: MDA-MB-231; experiment: Potency index, ratio of cisplatin IC50 to compound IC50 for cytotoxicity against human MDA-MB-231 cells in normoxic condition; type: functional
[23] = tested on: MCF7; experiment: Growth inhibition of human MCF7 cells; type: functional
[24] = tested on: NCI-H460; experiment: Potency index, ratio of doxorubicin GI50 to compound GI50 for growth inhibition of human NCI-H460 cells; type: functional
[25] = tested on: SF-268; experiment: Potency index, ratio of doxorubicin GI50 to compound GI50 for growth inhibition of human SF268 cells; type: functional
[26] = tested on: NCI-H460; experiment: Growth inhibition of human NCI-H460 cells; type: functional
[27] = tested on: SF-268; experiment: Growth inhibition of human SF268 cells; type: functional
[28] = tested on: MCF7; experiment: Potency index, ratio of doxorubicin GI50 to compound GI50 for growth inhibition of human MCF7 cells; type: functional
[29] = tested on: SNB-75; experiment: Anticancer activity against human SNB75 cells; type: functional
[30] = tested on: OVCAR-4; experiment: Anticancer activity against human OVCAR4 cells; type: functional

SMILES: Cc1cc(=O)oc2cc(Oc3nc(-c4cccs4)cn4c(-c5cccs5)cnc34)ccc12
growth inhibition (GI) [9]: 10.57 - 92.29% | growth inhibition (GI) [10]: 10.57 - 92.29% | growth inhibition (GI) [11]: 10.57 - 92.29%

SMILES: CCN(CC)CCOc1ccc(-c2c(-c3ccc(NC(=O)CCCCCCCCC(=O)Nc4ccc(-c5c(-c6ccc(OCCN(CC)CC)cc6)c6ccc(OCCN(CC)CC)cc6oc5=O)cc4)cc3)c(=O)oc3cc(OCCN(CC)CC)ccc23)cc1
Ratio IC50 [12]: 2.4 - 8.3 | Ratio IC50 [13]: 2.4 - 8.3 | IC50 [14]: 1000 to 3720 nM | IC50 [15]: 1000 to 3720 nM | IC50 [16]: 1000 to 3720 nM | Ratio IC50 [17]: 2.4 - 8.3

SMILES: COc1ccc(NC(=O)c2ccc(-n3cc(COc4cc(=O)oc5ccccc45)nn3)cc2)cc1OC
IC50 [18]: 30 to 91600 nM | Ratio IC50 [19]: 20 - 156 | Ratio IC50 [20]: 20 - 156 | Ratio IC50 [21]: 20 - 156 | Ratio IC50 [22]: 20 - 156

More lines, main results first:

IC50 [1]: 0.16 to 0.31 µg/mL (≈ 0.287 to 0.556 µM) | IC50 [2]: 0.16 to 0.31 µg/mL (≈ 0.287 to 0.556 µM) | IC50 [3]: 0.16 to 0.31 µg/mL (≈ 0.287 to 0.556 µM) | IC50 [4]: 0.16 to 0.31 µg/mL (≈ 0.287 to 0.556 µM)
SMILES: COc1ccc(-n2nc(C)n(-n3c(-c4cc5ccccc5oc4=O)cs/c3=N\c3ccc(Cl)cc3)c2=O)cc1
Ratio IC50 [5]: 1.9 - 3.3 | Ratio IC50 [6]: 1.9 - 3.3 | Ratio IC50 [7]: 1.9 - 3.3 | Ratio IC50 [8]: 1.9 - 3.3

GI50 [23]: 50 to 80 nM | GI50 [26]: 50 to 80 nM
SMILES: O=c1oc2ccccc2cc1-c1nc2ccccc2n1C(=S)Nc1ccccc1
RatioGI50 [24]: 1.5 - 2 | RatioGI50 [25]: 1.5 - 2 | GI50 [27]: 50 to 80 nM | RatioGI50 [28]: 1.5 - 2

GI50 [30]: 330 nM
SMILES: Nc1ccc2c(-c3nc4ccc(Br)c(O)c4s3)cc(=O)oc2c1
GI50 [29]: 240 nM
